Key:
[1] = target: T1, human orexin-1 receptor (Homo sapiens, UniProt O43613); assay: Intracellular calcium measurements (FLIPR), orexin receptor antagonistic activity, OX1; type: cell-based; details: CHO cells expressing the human orexin-1 receptor, 10 nM orexin-A as agonist
T1 construct: expressed in transfected cells; host or cells: CHO (Chinese hamster ovary) cells, G418 selection
T1 sequence (O43613 1-425): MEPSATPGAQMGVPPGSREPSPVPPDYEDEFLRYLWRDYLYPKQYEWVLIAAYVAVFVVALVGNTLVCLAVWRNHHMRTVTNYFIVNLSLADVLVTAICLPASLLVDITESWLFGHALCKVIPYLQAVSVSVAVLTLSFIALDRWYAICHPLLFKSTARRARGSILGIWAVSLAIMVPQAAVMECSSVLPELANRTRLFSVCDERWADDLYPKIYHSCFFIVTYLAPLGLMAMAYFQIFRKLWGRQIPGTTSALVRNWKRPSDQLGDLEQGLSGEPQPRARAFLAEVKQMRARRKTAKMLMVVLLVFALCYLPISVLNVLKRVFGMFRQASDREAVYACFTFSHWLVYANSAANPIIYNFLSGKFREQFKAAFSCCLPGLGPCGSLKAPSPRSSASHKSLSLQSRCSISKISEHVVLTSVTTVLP
Protocol: (§1) The orexin receptor antagonistic activity of the compounds of formula (I) is determined in accordance with the following experimental method.
(§2) Intracellular Calcium Measurements:
(§3) Chinese hamster ovary (CHO) cells expressing the human orexin-1 receptor and the human orexin-2 receptor, respectively, are grown in culture medium (Ham F-12 with L-Glutamine) containing 300 μg/ml G418, 100 U/ml penicillin, 100 μg/ml streptomycin and 10% inactivated fetal calf serum (FCS). The cells are seeded at 80′000 cells/well into 96-well black clear bottom sterile plates (Costar) which have been precoated with 1% gelatine in Hanks' Balanced Salt Solution (HBSS). All reagents are from Gibco BRL. The seeded plates are incubated overnight at 37° C. in 5% CO2.
(§4) Human orexin-A as an agonist is prepared as 1 mM stock solution in MeOH:water (1:1), diluted in HBSS containing 0.1% bovine serum albumin (BSA) and 2 mM HEPES for use in the assay at a final concentration of 10 nM.
(§5) Antagonists are prepared as 10 mM stock solution in DMSO, then diluted in 96-well plates, first in DMSO, then in HBSS containing 0.1% bovine serum albumin (BSA) and 2 mM HEPES.
(§6) On the day of the assay, 100 μl of loading medium (HBSS containing 1% FCS, 2 mM HEPES, 5 mM probenecid (Sigma) and 3 μM of the fluorescent calcium indicator fluo-3 AM (1 mM stock solution in DMSO with 10% pluronic acid) (Molecular Probes) is added to each well.
(§7) The 96-well plates are incubated for 60 min at 37° C. in 5% CO2. The loading solution is then aspirated and cells are washed 3 times with 200 μl HBSS containing 2.5 mM probenecid, 0.1% BSA, 2 mM HEPES. 100 μl of that same buffer is left in each well.
(§8) Within the Fluorescent Imaging Plate Reader (FLIPR, Molecular Devices), antagonists are added to the plate in a volume of 50 μl, incubated for 20 min and finally 100 μl of agonist is added. Fluorescence is measured for each well at 1 second intervals, and the height of each fluorescence peak is compared to the height of the fluorescence peak induced by 10 nM orexin-A with buffer in place of antagonist. For each antagonist, IC50 value (the concentration of compound needed to inhibit 50% of the agonistic response) is determined.

[2] = target: T2, human orexin-2 receptor (Homo sapiens, UniProt O43614); assay: Intracellular calcium measurements (FLIPR), orexin receptor antagonistic activity, OX2; type: cell-based; details: CHO cells expressing the human orexin-2 receptor, 10 nM orexin-A as agonist
T2 construct: expressed in transfected cells; host or cells: CHO (Chinese hamster ovary) cells, G418 selection
T2 sequence (O43614 1-444): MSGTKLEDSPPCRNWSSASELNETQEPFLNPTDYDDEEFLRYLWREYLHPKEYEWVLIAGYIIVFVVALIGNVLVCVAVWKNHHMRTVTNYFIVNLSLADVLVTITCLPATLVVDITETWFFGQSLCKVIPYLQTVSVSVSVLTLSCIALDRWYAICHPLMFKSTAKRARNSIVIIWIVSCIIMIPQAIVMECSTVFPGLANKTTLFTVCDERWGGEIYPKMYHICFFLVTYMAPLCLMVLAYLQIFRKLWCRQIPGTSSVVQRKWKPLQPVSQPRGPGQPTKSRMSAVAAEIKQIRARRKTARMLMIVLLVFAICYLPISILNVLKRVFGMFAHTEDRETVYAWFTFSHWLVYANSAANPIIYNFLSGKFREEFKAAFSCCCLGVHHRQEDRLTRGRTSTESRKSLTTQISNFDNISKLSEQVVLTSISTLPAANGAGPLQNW
Protocol: as §1, §2, §3, §4, §5, §6, §7, §8

| SMILES | IC50 [1] [nM] | IC50 [2] [nM] |
| --- | --- | --- |
| O=C(NC[C@@H]1C[C@@H]2C[C@@H]2N1C(=O)c1ccccc1-c1cccc(Cl)c1)c1cccc2occc12 [Example 8, benzofuran-4-carboxylic acid [(1S,3S,5S)-2-(3′-chloro-biphenyl-2-carbonyl)-2-aza-bicyclo[3.1.0]hex-3-ylmethyl]-amide] | 45 | 78 |
| Cc1cccc(-c2sc(C)nc2C(=O)N2[C@H](CNC(=O)c3c(C)nc4sccn34)C[C@@H]3C[C@@H]32)c1 [Example 11, 6-methyl-imidazo[2,1-b]thiazole-5-carboxylic acid [(1S,3S,5S)-2-(2-methyl-5-m-tolyl-thiazole-4-carbonyl)-2-aza-bicyclo[3.1.0]hex-3-ylmethyl]-amide] | 7 | 24 |
| Cc1nc2sccn2c1C(=O)NC[C@@H]1C[C@@H]2C[C@@H]2N1C(=O)c1ccccc1-c1cccc(Cl)c1 [Example 17, 6-methyl-imidazo[2,1-b]thiazole-5-carboxylic acid [(1S,3S,5S)-2-(3′-chloro-biphenyl-2-carbonyl)-2-aza-bicyclo[3.1.0]hex-3-ylmethyl]-amide] | 15 | 60 |
| Nc1nc(C(=O)N2[C@H](CNC(=O)c3cccc4c3OCCO4)C[C@@H]3C[C@@H]32)c(-c2cccc(F)c2)s1 [Example 25, 2,3-dihydro-benzo[1,4]dioxine-5-carboxylic acid {(1S,3S,5S)-2-[2-amino-5-(3-fluoro-phenyl)-thiazole-4-carbonyl]-2-aza-bicyclo[3.1.0]hex-3-ylmethyl}-amide] | 80 | 14 |
| Cc1cccc(-c2sc(N)nc2C(=O)N2[C@H](CNC(=O)c3c(C)noc3C)C[C@@H]3C[C@@H]32)c1 [Example 33, 3,5-dimethyl-isoxazole-4-carboxylic acid [(1S,3S,5S)-2-(2-amino-5-m-tolyl-thiazole-4-carbonyl)-2-aza-bicyclo[3.1.0]hex-3-ylmethyl]-amide] | 129 | 94 |
| Cc1nc(C(=O)N2[C@H](CNC(=O)c3nccc4ccccc34)C[C@@H]3C[C@@H]32)c(-c2cccc(F)c2)s1 [Example 38, isoquinoline-1-carboxylic acid {(1S,3S,5S)-2-[5-(3-fluoro-phenyl)-2-methyl-thiazole-4-carbonyl]-2-aza-bicyclo[3.1.0]hex-3-ylmethyl}-amide] | 104 | 358 |
| Nc1nc(C(=O)N2[C@H](CNC(=O)c3cnc4sccn34)C[C@@H]3C[C@@H]32)c(-c2cccc(F)c2)s1 [Example 57, imidazo[2,1-b]thiazole-5-carboxylic acid {(1S,3S,5S)-2-[2-amino-5-(3-fluoro-phenyl)-thiazole-4-carbonyl]-2-aza-bicyclo[3.1.0]hex-3-ylmethyl}-amide] | 12 | 11 |
| Cc1cccc(-c2sc(C)nc2C(=O)N2[C@H](CNC(=O)c3ccc4ccccc4n3)C[C@@H]3C[C@@H]32)c1 [Example 93, Quinoline-2-carboxylic acid [(1S,3S,5S)-2-(2-methyl-5-m-tolyl-thiazole-4-carbonyl)-2-aza-bicyclo[3.1.0]hex-3-ylmethyl]-amide] | 14 | 40 |
| CCn1cc(C(=O)NC[C@@H]2C[C@@H]3C[C@@H]3N2C(=O)c2nc(C)sc2-c2cccc(C)c2)c(C)n1 [Example 99, 1-Ethyl-3-methyl-1H-pyrazole-4-carboxylic acid [(1S,3S,5S)-2-(2-methyl-5-m-tolyl-thiazole-4-carbonyl)-2-aza-bicyclo[3.1.0]hex-3-ylmethyl]-amide] | 42 | 15 |
| Cc1cccc(-c2sc(C)nc2C(=O)N2[C@H](CNC(=O)c3cccc(C(F)(F)F)c3)C[C@@H]3C[C@@H]32)c1 [Example 101, N-[(1S,3S,5S)-2-(2-Methyl-5-m-tolyl-thiazole-4-carbonyl)-2-aza-bicyclo[3.1.0]hex-3-ylmethyl]-3-trifluoromethyl-benzamide] | 42 | 57 |
| COc1ccc(C(=O)NC[C@@H]2C[C@@H]3C[C@@H]3N2C(=O)c2nc(C)sc2-c2cccc(C)c2)cc1OC [Example 123, 3,4-Dimethoxy-N-[(1S,3S,5S)-2-(2-methyl-5-m-tolyl-thiazole-4-carbonyl)-2-aza-bicyclo[3.1.0]hex-3-ylmethyl]-benzamide] | 1980 | 74 |
| Cc1cccc(-c2sc(C)nc2C(=O)N2[C@H](CNC(=O)c3cccc4c3OCCN4C)C[C@@H]3C[C@@H]32)c1 [Example 130, 4-Methyl-3,4-dihydro-2H-benzo[1,4]oxazine-8-carboxylic acid [(1S,3S,5S)-2-(2-methyl-5-m-tolyl-thiazole-4-carbonyl)-2-aza-bicyclo[3.1.0]hex-3-ylmethyl]-amide] | 76 | 129 |
| Cc1nc(C(=O)N2[C@H](CNC(=O)c3noc4ccccc34)C[C@@H]3C[C@@H]32)c(-c2cccc(Cl)c2)s1 [Example 147, Benzo[d]isoxazole-3-carboxylic acid {(1S,3S,5S)-2-[5-(3-chloro-phenyl)-2-methyl-thiazole-4-carbonyl]-2-aza-bicyclo[3.1.0]hex-3-ylmethyl}-amide] | 51 | 74 |
| Cc1cccc(-c2sc(N)nc2C(=O)N2[C@H](CNC(=O)c3cccc(Br)c3)C[C@@H]3C[C@@H]32)c1 [Example 163, N-[(1S,3S,5S)-2-(2-Amino-5-m-tolyl-thiazole-4-carbonyl)-2-aza-bicyclo[3.1.0]hex-3-ylmethyl]-3-bromo-benzamide] | 62 | 57 |
| Cc1cccc(-c2sc(N)nc2C(=O)N2[C@H](CNC(=O)c3cccc4cccnc34)C[C@@H]3C[C@@H]32)c1 [Example 176, Quinoline-8-carboxylic acid [(1S,3S,5S)-2-(2-amino-5-m-tolyl-thiazole-4-carbonyl)-2-aza-bicyclo[3.1.0]hex-3-ylmethyl]-amide] | 45 | 57 |
| Cc1nc(C(=O)N2[C@H](CNC(=O)c3cccc4c3CCO4)C[C@@H]3C[C@@H]32)c(-c2ccc(Br)cc2)s1 [Example 192, 2,3-Dihydro-benzofuran-4-carboxylic acid {(1S,3S,5S)-2-[5-(4-bromo-phenyl)-2-methyl-thiazole-4-carbonyl]-2-aza-bicyclo[3.1.0]hex-3-ylmethyl}-amide] | 110 | 35 |
| Cc1nc(C(=O)N2[C@H](CNC(=O)c3cccc4c3CCO4)C[C@@H]3C[C@@H]32)c(-c2cccc(F)c2C)s1 [Example 199, 2,3-Dihydro-benzofuran-4-carboxylic acid {(1S,3S,5S)-2-[5-(3-fluoro-2-methyl-phenyl)-2-methyl-thiazole-4-carbonyl]-2-aza-bicyclo[3.1.0]hex-3-ylmethyl}-amide] | 139 | 41 |
| O=C(NC[C@@H]1C[C@@H]2C[C@@H]2N1C(=O)c1nc(C2CC2)sc1-c1ccccc1F)c1cccc2c1CCO2 [Example 208, 2,3-Dihydro-benzofuran-4-carboxylic acid {(1S,3S,5S)-2-[2-cyclopropyl-5-(2-fluoro-phenyl)-thiazole-4-carbonyl]-2-aza-bicyclo[3.1.0]hex-3-ylmethyl}-amide] | 58 | 34 |

Source: patent US8288435B2, “2-aza-bicyclo[3.1.0]hexane derivatives as orexin receptor antagonists” (Actelion Pharmaceuticals Ltd., priority 2006, dated 2012)
